Literature values as cited in patent US11191734B2, “Ketamine transdermal delivery system” (SHENOX PHARMACEUTICALS, LLC, priority 2015, dated 2021).

Tests used:
[1] = in vivo
[2] = not given; remark: listed apart in the source
NMDA receptor = details: in vitro
[3] = three-compartment model, 70-kg human

## CNC1(c2ccccc2Cl)CCCCC1=O (racemic) [ketamine]
[1]
  onset of antidepressant effect after administration: ≤ 2 h
In humans
  absolute oral bioavailability: 10-20%
In vivo
  half-life: about 2 hours
  systemic (primarily hepatic) clearance: about 19 ml/min·kg
[3]
  V1: 133 L
  clearance: 79.8 L/h
  micro constant k12: 0.174 h⁻¹
  micro constant k13: 1.18 h⁻¹
  micro constant k21: 0.124 h⁻¹
  micro constant k31: 1.59 h⁻¹

## CN[C@@]1(c2ccccc2Cl)CCCCC1=O [R-ketamine]
[2]; animal model studies
  antidepressant effectiveness: more effective as an antidepressant than S-ketamine
[2]; in vivo
  psychotomimetic side effects and abuse liability: free of psychotomimetic side effects and abuse liability

## CN[C@]1(c2ccccc2Cl)CCCCC1=O [S-ketamine]
NMDA receptor
  affinity on NMDA receptor binding relative to R-ketamine: ~4 fold
